Results as given in ChEMBL document CHEMBL3425432, “Azide-alkyne cycloaddition-mediated cyclization of phosphonopeptides and their evaluation as PTP1B binders and enrichment tools” (Bioorg Med Chem, 2015).
Active and inactive are the calls of the source. No cut-off for these calls is given here. *1 amine or outer side, *2 acyl side, *3 side chain or, on linkers, in order; H or OH if unused. Where a SMILES comes first, the peptide text is derived from it. [ ]: non-standard residue; d: D form. The star is where a group is joined. F2Pmp = N[C@@H](Cc1ccc(C(F)(F)P(=O)(O)O)cc1)C(=O)O; Biotin = O=C1N[C@H]2[C@H](CS[C@H]2CCCCC(=O)*)N1; X1 = [N-]=[N+]=N[C@@H](CCCCN[*:1])C(=O)[*:2]; pY = N[C@@H](Cc1ccc(OP(=O)(O)O)cc1)C(=O)O; Hexanoyl(6-N3) = [N-]=[N+]=NCCCCCC(=O)*; Pra = C#CC[C@H](N)C(=O)O

Assays:
[1] = molecular target: T1, Tyrosine-protein phosphatase non-receptor type 1 (Homo sapiens) (UniProt P18031); assay: Binding affinity to PTP1B in human U2OS cells by SDS-PAGE based pull-down assay; assay type: cell-based
T1 sequence (whole entry): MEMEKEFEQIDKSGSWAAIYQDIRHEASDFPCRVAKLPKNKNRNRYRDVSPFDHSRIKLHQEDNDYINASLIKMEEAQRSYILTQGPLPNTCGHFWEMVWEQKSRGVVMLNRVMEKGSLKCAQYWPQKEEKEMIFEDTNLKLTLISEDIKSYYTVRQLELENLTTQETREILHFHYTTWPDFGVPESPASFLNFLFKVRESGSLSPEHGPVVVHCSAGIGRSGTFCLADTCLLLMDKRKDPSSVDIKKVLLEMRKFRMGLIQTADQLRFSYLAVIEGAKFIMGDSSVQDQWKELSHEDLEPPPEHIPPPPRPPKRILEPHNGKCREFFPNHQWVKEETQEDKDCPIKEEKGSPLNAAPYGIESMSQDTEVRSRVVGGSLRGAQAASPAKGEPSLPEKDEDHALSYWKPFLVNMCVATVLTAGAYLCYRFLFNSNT

[2] = Retention time of the compound by HPLC method; assay type: physicochemical
[3] = molecular target: Receptor-type tyrosine-protein phosphatase alpha (Homo sapiens) (UniProt P18433); assay: Binding affinity to PTPalpha in human MCF7 cells by SDS-PAGE based pull-down assay; assay type: cell-based
Chain of Receptor-type tyrosine-protein phosphatase alpha (Homo sapiens) (P18433 20-802 limits assumed): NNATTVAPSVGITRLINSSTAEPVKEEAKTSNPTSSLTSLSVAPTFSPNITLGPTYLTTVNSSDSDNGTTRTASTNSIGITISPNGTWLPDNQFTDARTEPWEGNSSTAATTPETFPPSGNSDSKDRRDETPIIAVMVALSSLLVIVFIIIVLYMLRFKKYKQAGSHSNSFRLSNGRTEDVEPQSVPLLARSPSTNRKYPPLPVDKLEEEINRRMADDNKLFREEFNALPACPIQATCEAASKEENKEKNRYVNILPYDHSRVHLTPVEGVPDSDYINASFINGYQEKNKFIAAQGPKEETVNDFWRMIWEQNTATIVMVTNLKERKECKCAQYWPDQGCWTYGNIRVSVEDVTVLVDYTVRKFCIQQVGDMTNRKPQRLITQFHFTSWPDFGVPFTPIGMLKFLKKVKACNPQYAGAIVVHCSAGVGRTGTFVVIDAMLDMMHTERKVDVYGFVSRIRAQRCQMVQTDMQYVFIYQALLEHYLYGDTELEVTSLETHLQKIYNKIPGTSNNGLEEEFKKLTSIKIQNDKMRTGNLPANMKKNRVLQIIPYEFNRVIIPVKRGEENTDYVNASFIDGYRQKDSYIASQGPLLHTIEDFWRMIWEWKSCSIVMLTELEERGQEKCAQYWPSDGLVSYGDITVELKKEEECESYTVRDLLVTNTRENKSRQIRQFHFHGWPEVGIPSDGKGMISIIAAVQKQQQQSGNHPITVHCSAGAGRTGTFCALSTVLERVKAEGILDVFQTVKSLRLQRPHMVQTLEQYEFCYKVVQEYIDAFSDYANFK

[4] = molecular target: Proto-oncogene tyrosine-protein kinase Src (Homo sapiens) (UniProt P12931); assay: Binding affinity to c-Src in human MCF7 cells by SDS-PAGE based pull-down assay; assay type: cell-based
Chain of Proto-oncogene tyrosine-protein kinase Src (Homo sapiens) (P12931 2-536 limits assumed): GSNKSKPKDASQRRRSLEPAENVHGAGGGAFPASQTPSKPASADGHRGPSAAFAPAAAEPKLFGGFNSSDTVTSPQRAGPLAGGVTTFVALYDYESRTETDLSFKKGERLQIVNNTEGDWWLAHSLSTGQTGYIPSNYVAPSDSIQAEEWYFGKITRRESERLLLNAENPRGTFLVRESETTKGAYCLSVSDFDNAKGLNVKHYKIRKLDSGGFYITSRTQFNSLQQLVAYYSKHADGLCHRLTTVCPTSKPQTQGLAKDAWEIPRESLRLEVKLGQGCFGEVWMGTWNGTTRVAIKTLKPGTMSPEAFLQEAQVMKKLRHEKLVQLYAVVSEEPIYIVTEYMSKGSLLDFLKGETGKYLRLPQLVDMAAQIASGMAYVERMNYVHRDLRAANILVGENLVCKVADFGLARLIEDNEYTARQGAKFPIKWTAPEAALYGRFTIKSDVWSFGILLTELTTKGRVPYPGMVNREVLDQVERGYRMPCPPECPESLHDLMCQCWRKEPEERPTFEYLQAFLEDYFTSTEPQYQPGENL

[5] = molecular target: T2, Tyrosine-protein phosphatase non-receptor type 2 (Homo sapiens) (UniProt P17706); assay: Binding affinity to TCPTP in human MCF7 cells by SDS-PAGE based pull-down assay; assay type: cell-based
T2 sequence (whole entry): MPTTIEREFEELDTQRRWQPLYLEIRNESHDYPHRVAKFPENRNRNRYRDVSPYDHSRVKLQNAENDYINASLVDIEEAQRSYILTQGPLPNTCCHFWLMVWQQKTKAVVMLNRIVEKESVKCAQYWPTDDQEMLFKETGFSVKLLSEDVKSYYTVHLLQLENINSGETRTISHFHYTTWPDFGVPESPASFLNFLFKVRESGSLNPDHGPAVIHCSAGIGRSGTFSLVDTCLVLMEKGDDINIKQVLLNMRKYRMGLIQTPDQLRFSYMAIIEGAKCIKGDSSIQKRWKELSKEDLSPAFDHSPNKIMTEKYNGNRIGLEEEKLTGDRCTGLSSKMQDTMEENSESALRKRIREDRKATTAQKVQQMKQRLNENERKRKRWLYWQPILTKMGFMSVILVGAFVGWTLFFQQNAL

[6] = molecular target: T1, Tyrosine-protein phosphatase non-receptor type 1 (Homo sapiens); assay: Binding affinity to PTP1B in human MCF7 cells by SDS-PAGE based pull-down assay; assay type: cell-based

Row | SMILES | Activity [1] | Retention_time [2] [min] | Activity [3] | Activity [4] | Activity [5] | Activity [6]
1 | C#CC[C@H](NC(=O)[C@H](CC(N)=O)NC(=O)[C@H](CCC(=O)O)NC(=O)CNC(=O)[C@@H]1CCCN1C(=O)[C@H](CCC(N)=O)NC(=O)[C@H](Cc1ccc(C(F)(F)P(=O)(O)O)cc1)NC(=O)[C@H](CCC(N)=O)NC(=O)[C@@H]1CCCN1C(=O)[C@H](CCC(=O)O)NC(=O)[C@H](CCCCNC(=O)CCCC[C@@H]1SC[C@@H]2NC(=O)N[C@@H]21)N=[N+]=[N-])C(N)=O (Biotin-[X1]EPQ[F2Pmp]QPGEN[Pra]-NH2) | inactive | 8.8 | – | – | – | –
2 | NC(=O)CC[C@@H]1NC(=O)[C@@H]2CCCN2C(=O)[C@H](CCC(=O)O)NC(=O)[C@@H](CCCCNC(=O)CCCC[C@@H]2SC[C@@H]3NC(=O)N[C@@H]32)NC(=O)CCCCCn2cc(nn2)C[C@H](C(N)=O)NC(=O)[C@H](CC(N)=O)NC(=O)[C@H](CCC(=O)O)NC(=O)CNC(=O)[C@@H]2CCCN2C(=O)[C@H](CCC(N)=O)NC(=O)[C@H](Cc2ccc(O)cc2)NC1=O | inactive | 8.5 | – | – | – | –
3 | C#CC[C@H](NC(=O)[C@H](CC(N)=O)NC(=O)[C@H](CCC(=O)O)NC(=O)CNC(=O)[C@@H]1CCCN1C(=O)[C@H](CCC(N)=O)NC(=O)[C@H](Cc1ccc(C(F)(F)P(=O)(O)O)cc1)NC(=O)[C@H](CCC(N)=O)NC(=O)[C@@H]1CCCN1C(=O)[C@H](CCC(=O)O)NC(=O)[C@H](CCCCNC(=O)CCCC[C@@H]1SC[C@@H]2NC(=O)N[C@@H]21)NC(=O)CCCCCN=[N+]=[N-])C(N)=O ({Hexanoyl(6-N3)}-K(Biotin)EPQ[F2Pmp]QPGEN[Pra]-NH2) | inactive | 9.5 | – | – | – | –
4 | CC(C)C[C@H](NC(=O)[C@H](CC(N)=O)NC(=O)[C@H](CCC(=O)O)NC(=O)CNC(=O)[C@@H]1CCCN1C(=O)[C@H](CCC(N)=O)NC(=O)[C@H](Cc1ccc(C(F)(F)P(=O)(O)O)cc1)NC(=O)[C@H](CCC(N)=O)NC(=O)[C@@H]1CCCN1C(=O)[C@H](CCC(=O)O)NC(=O)CCCC[C@@H]1SC[C@@H]2NC(=O)N[C@@H]21)C(N)=O (Biotin-EPQ[F2Pmp]QPGENL-NH2) | inactive | 8 | – | – | – | –
5 | NC(=O)CC[C@@H]1NC(=O)[C@@H]2CCCN2C(=O)[C@H](CCC(=O)O)NC(=O)[C@@H](CCCCNC(=O)CCCC[C@@H]2SC[C@@H]3NC(=O)N[C@@H]32)n2cc(nn2)C[C@H](C(N)=O)NC(=O)[C@H](CC(N)=O)NC(=O)[C@H](CCC(=O)O)NC(=O)CNC(=O)[C@@H]2CCCN2C(=O)[C@H](CCC(N)=O)NC(=O)[C@H](Cc2ccc(C(F)(F)P(=O)(O)O)cc2)NC1=O | Active | 7.1 | – | – | – | –
6 | CC(=O)N[C@@H](CCCCNC(=O)CCCC[C@@H]1SC[C@@H]2NC(=O)N[C@@H]21)C(=O)N[C@@H](CCC(=O)O)C(=O)N1CCC[C@H]1C(=O)N[C@@H](CCC(N)=O)C(=O)N[C@@H](Cc1ccc(C(F)(F)P(=O)(O)O)cc1)C(=O)N[C@@H](CCC(N)=O)C(=O)N1CCC[C@H]1C(=O)NCC(=O)N[C@@H](CCC(=O)O)C(=O)N[C@@H](CC(N)=O)C(=O)N[C@@H](CC(C)C)C(N)=O (Ac-K(Biotin)EPQ[F2Pmp]QPGENL-NH2) | Active | 9.1 | – | – | – | –
7 | CC(=O)N[C@@H](CCCCNC(=O)CCCC[C@@H]1SC[C@@H]2NC(=O)N[C@@H]21)C(=O)N[C@@H](CCC(=O)O)C(=O)N1CCC[C@H]1C(=O)N[C@@H](CCC(N)=O)C(=O)N[C@@H](Cc1ccc(OP(=O)(O)O)cc1)C(=O)N[C@@H](CCC(N)=O)C(=O)N1CCC[C@H]1C(=O)NCC(=O)N[C@@H](CCC(=O)O)C(=O)N[C@@H](CC(N)=O)C(=O)N[C@@H](CC(C)C)C(N)=O (Ac-K(Biotin)EPQ[pY]QPGENL-NH2) | – | 6.6 | inactive | inactive | inactive | inactive
8 | NC(=O)CC[C@@H]1NC(=O)[C@@H]2CCCN2C(=O)[C@H](CCC(=O)O)NC(=O)[C@@H](CCCCNC(=O)CCCC[C@@H]2SC[C@@H]3NC(=O)N[C@@H]32)NC(=O)CCCCCn2cc(nn2)C[C@H](C(N)=O)NC(=O)[C@H](CC(N)=O)NC(=O)[C@H](CCC(=O)O)NC(=O)CNC(=O)[C@@H]2CCCN2C(=O)[C@H](CCC(N)=O)NC(=O)[C@H](Cc2ccc(C(F)(F)P(=O)(O)O)cc2)NC1=O | Active | 7.1 | inactive | inactive | Active | Active
9 | NC(=O)CC[C@@H]1NC(=O)[C@@H]2CCCN2C(=O)[C@H](CCC(=O)O)NC(=O)[C@@H](CCCCNC(=O)CCCC[C@@H]2SC[C@@H]3NC(=O)N[C@@H]32)n2cc(nn2)C[C@H](C(N)=O)NC(=O)[C@H](CC(N)=O)NC(=O)[C@H](CCC(=O)O)NC(=O)CNC(=O)[C@@H]2CCCN2C(=O)[C@H](CCC(N)=O)NC(=O)[C@H](Cc2ccc(O)cc2)NC1=O | inactive | 9.5 | inactive | inactive | inactive | inactive
